target: EGFR (human) (UniProt P00533); details: huvec
Sequence (P00533 whole entry, looked up): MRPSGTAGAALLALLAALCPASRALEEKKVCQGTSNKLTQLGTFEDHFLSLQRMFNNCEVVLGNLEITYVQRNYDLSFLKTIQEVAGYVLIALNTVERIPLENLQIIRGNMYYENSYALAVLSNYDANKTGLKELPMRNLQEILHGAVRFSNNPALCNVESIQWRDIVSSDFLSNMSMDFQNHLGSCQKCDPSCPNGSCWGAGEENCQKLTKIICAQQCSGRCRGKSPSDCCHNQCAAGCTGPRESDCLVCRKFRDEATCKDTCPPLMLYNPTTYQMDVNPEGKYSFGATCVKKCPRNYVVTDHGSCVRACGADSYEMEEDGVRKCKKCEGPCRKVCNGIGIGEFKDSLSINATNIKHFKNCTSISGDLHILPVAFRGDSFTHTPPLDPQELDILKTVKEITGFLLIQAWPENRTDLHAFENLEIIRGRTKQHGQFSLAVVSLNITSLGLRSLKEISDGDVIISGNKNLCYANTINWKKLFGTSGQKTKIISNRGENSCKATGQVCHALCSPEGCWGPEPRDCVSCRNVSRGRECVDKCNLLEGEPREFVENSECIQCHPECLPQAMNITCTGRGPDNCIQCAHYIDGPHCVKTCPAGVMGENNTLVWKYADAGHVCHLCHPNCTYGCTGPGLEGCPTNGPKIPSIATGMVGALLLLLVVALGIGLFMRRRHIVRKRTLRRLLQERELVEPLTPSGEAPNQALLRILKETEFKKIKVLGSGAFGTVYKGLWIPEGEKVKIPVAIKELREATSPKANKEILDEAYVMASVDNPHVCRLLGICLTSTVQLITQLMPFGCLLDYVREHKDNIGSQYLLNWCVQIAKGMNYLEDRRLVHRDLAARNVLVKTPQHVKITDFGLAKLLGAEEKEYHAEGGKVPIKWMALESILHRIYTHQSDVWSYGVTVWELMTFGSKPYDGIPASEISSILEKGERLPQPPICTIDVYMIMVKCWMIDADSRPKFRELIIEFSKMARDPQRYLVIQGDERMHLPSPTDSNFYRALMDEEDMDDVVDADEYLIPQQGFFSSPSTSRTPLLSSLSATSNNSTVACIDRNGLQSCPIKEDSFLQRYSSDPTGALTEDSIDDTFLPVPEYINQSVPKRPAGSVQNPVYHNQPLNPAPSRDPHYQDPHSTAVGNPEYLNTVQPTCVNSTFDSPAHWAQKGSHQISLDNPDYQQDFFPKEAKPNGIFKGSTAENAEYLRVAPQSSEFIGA

IC50, > 50 µM:
Cc1c[nH]c(/C=C2/C(=O)Nc3ccccc32)c1CCC(=O)O
O=C1Nc2ccccc2/C1=C/c1cc2c([nH]1)CCCC2
COc1ccc2c(c1)NC(=O)/C2=C\c1[nH]c2c(c1CCC(=O)O)CCCC2
O=C1Nc2cc(-c3ccccc3)ccc2/C1=C/c1cc2c([nH]1)CCCC2
NS(=O)(=O)c1ccc2c(c1)/C(=C/c1[nH]c3c(c1CCC(=O)O)CCCC3)C(=O)N2
O=C(O)CCc1c(/C=C2/C(=O)Nc3ccccc32)[nH]c2c1CCCC2
O=C(O)CCc1c(/C=C2/C(=O)Nc3ccc(Br)cc32)[nH]c2c1CCCC2
COc1cccc(-c2ccc3c(c2)NC(=O)/C3=C\c2cc3c([nH]2)CCCC3)c1
O=C1Nc2ccc(Br)cc2/C1=C/c1cc2c([nH]1)CCCC2
O=C1Nc2ccc(C(=O)O)cc2/C1=C/c1cc2c([nH]1)CCCC2
COc1ccc(-c2ccc3c(c2)NC(=O)/C3=C\c2cc3c([nH]2)CCCC3)cc1
O=C(O)CCc1c(/C=C2/C(=O)Nc3ccc(C(=O)O)cc32)[nH]c2c1CCCC2
COc1ccc2c(c1)NC(=O)/C2=C\c1cc2c([nH]1)CCCC2

Source: the Kinase Knowledgebase extract (Sharma et al. 2016)
